{
  "source": "patent US20220389000A1",
  "about": "“PESTICIDALLY ACTIVE CYCLIC AMINE COMPOUNDS” (SYNGENTA CROP PROTECTION AG, priority 2019, published 2022)",
  "key": {"[1]": {"test_system": "Tetranychus urticae (Two-Spotted Spider Mite)", "assay": "Example B4: Tetranychus urticae (two-spotted spider mite), feeding/contact activity, sprayed bean leaf discs", "format": "in vivo", "conditions": "foliar, 192 h, application rate 200 ppm, mixed population (mobile stages) on sprayed bean leaf discs, 8 days after infestation", "protocol": "Example B4: Tetranychus urticae (Two-Spotted Spider Mite): Feeding/Contact Activity\nBean leaf discs on agar in 24-well microtiter plates were sprayed with aqueous test solutions prepared from 10'000 ppm DMSO stock solutions. After drying the leaf discs were infested with a mite population of mixed ages. The samples were assessed for mortality on mixed population (mobile stages) 8 days after infestation."}, "[2]": {"test_system": "Plutella xylostella (Diamond Back Moth)", "assay": "Example B3: Plutella xylostella (diamond back moth), treated artificial diet, eggs", "format": "in vivo", "conditions": "192 h, application rate 200 ppm, eggs on treated artificial diet, 8 days after infestation, vs untreated, read-out: effect in at least one of the two categories (mortality or growth inhibition)", "protocol": "Example B3: Plutella xylostella (Diamond Back Moth)\n24-well microtiter plates with artificial diet were treated with aqueous test solutions prepared from 10'000 ppm DMSO stock solutions by pipetting. After drying, Plutella eggs were pipetted through a plastic stencil onto a gel blotting paper and the plate was closed with it. The samples were assessed for mortality and growth inhibition in comparison to untreated samples 8 days after infestation.\nThe following compounds gave an effect of at least 80% in at least one of the two categories (mortality or growth inhibition) at an application rate of 200 ppm: […]"}},
  "data": [
    {"smiles": "Cc1nc(C2CCN(C(=O)c3cc(C#N)c(OCc4ccc(C(F)(F)F)cc4)nc3C(F)(F)F)CC2)no1", "note": "[P1.1, 5-[4-(5-Methyl-1,2,4-oxadiazol-3-yl)piperidine-1-carbonyl]-6-(trifluoromethyl)-2-[[4-(trifluoromethyl)phenyl]methoxy]pyridine-3-carbonitrile]", "values": [
      {"measurement": "mortality at 200 ppm", "setting": "[1]", "result": "≥ 80", "unit": "%"}
    ]},
    {"smiles": "Cc1nc(C2CCN(C(=O)c3cc(C#N)c(OCc4ccc(C(F)(F)F)cc4)nc3C)CC2)no1", "note": "[P1.43, 6-Methyl-5-[4-(5-methyl-1,2,4-oxadiazol-3-yl)piperidine-1-carbonyl]-2-[[4-(trifluoromethyl)phenyl]methoxy]pyridine-3-carbonitrile]", "values": [
      {"measurement": "mortality at 200 ppm", "setting": "[1]", "result": "≥ 80", "unit": "%"}
    ]},
    {"smiles": "Cc1nc(C2CCN(C(=O)c3cc(C#N)c(OCc4ccc(C(F)(F)F)cc4)nc3C(F)F)CC2)no1", "note": "[P1.48, 6-(Difluoromethyl)-5-[4-(5-methyl-1,2,4-oxadiazol-3-yl)piperidine-1-carbonyl]-2-[[4-(trifluoromethyl)phenyl]methoxy]pyridine-3-carbonitrile]", "values": [
      {"measurement": "mortality at 200 ppm", "setting": "[1]", "result": "≥ 80", "unit": "%"}
    ]},
    {"smiles": "N#Cc1cc(C(=O)N2CCN(c3ncc(Cl)cc3Cl)CC2)c(C(F)(F)F)nc1OCc1ccc(C(F)(F)F)cc1", "note": "[P2.1, 5-[4-(3,5-dichloro-2-pyridyl)piperazine-1-carbonyl]-6-(trifluoromethyl)-2-[[4-(trifluoromethyl)phenyl]methoxy]pyridine-3-carbonitrile]", "values": [
      {"measurement": "effect (mortality or growth inhibition) at 200 ppm", "setting": "[2]", "result": "≥ 80", "unit": "%"},
      {"measurement": "mortality at 200 ppm", "setting": "[1]", "result": "≥ 80", "unit": "%"}
    ]},
    {"smiles": "CC[S+]([O-])CC1CCN(C(=O)c2cc(C#N)c(OCc3ccc(C(F)(F)F)cc3)nc2C(F)(F)F)CC1", "note": "(stereo not drawn) [P3.4, 5-[4-(Ethylsulfinylmethyl)piperidine-1-carbonyl]-6-(trifluoromethyl)-2-[[4-(trifluoromethyl)phenyl]methoxy]pyridine-3-carbonitrile]", "values": [
      {"measurement": "mortality at 200 ppm", "setting": "[1]", "result": "≥ 80", "unit": "%"}
    ]},
    {"smiles": "Cc1nc(C2CCN(C(=O)c3cc(C#N)c(OCC4CC4(Cl)Cl)nc3C(F)(F)F)CC2)no1", "note": "(stereo not drawn) [P4.1, 2-[(2,2-Dichlorocyclopropyl)methoxy]-5-[4-(5-methyl-1,2,4-oxadiazol-3-yl)piperidine-1-carbonyl]-6-(trifluoromethyl)pyridine-3-carbonitrile]", "values": [
      {"measurement": "effect (mortality or growth inhibition) at 200 ppm", "setting": "[2]", "result": "≥ 80", "unit": "%"},
      {"measurement": "mortality at 200 ppm", "setting": "[1]", "result": "≥ 80", "unit": "%"}
    ]},
    {"smiles": "Cc1nc(C2CCN(C(=O)c3cc(C(N)=S)c(OCc4ccc(C(F)(F)F)cc4)nc3C(F)(F)F)CC2)no1", "note": "[P6.1, 5-[4-(5-Methyl-1,2,4-oxadiazol-3-yl)piperidine-1-carbonyl]-6-(trifluoromethyl)-2-[[4-(trifluoromethyl)phenyl]methoxy]pyridine-3-carbothioamide]", "values": [
      {"measurement": "mortality at 200 ppm", "setting": "[1]", "result": "≥ 80", "unit": "%"}
    ]}
  ]
}
